{
  "source": "patent US20030130225A1",
  "about": "“Novel methods of treating local fungal and bacterial infections” (priority 2001, published 2003)",
  "key": {"[1]": {"conditions": "human, in vivo, po; cited from earlier work"}, "Candida vaginitis": {"tested_on": "Candida vaginitis", "conditions": "single dose oral; cited from earlier work"}, "Candida albicans": {"tested_on": "Candida albicans", "conditions": "for rabbits with no Candida albicans in culture of the vaginal mucosa: 72 hours post dosage", "excerpt": "Thirty-five female albino rabbits vaginally infected with Candida albicans were randomly assigned to seven dosage groups, 5 rabbits per group."}},
  "note": "Like-named read-outs stand apart in the source and are kept apart here.",
  "data": [
    {"smiles": "OC(Cn1cncn1)(Cn1cncn1)c1ccc(F)cc1F", "note": "[Fluconazole, fluconazole]", "values": [
      {"measurement": "time to reach peak plasma concentration", "setting": "[1]", "value": "about 3 hours"},
      {"measurement": "time to reach vaginal tissue and vaginal fluid", "setting": "[1]", "value": "2 to 3", "unit": "days"},
      {"measurement": "average time for the onset of symptom relief", "setting": "Candida vaginitis", "value": "about 2.4 days"},
      {"measurement": "rabbits with no Candida albicans in culture of the vaginal mucosa", "setting": "Candida albicans; 0.5 mg/kg oral fluconazole once", "value": 40, "unit": "%"},
      {"measurement": "rabbits with no Candida albicans in culture of the vaginal mucosa", "setting": "Candida albicans; 1.0 mg/kg oral fluconazole once", "value": 100, "unit": "%"},
      {"measurement": "rabbits with no Candida albicans in culture of the vaginal mucosa", "setting": "Candida albicans; 2.0 mg/kg oral fluconazole once", "value": 60, "unit": "%"},
      {"measurement": "irritation to the vaginal epithelium", "setting": "Candida albicans; rabbit, in vivo", "value": "mild irritation"}
    ]}
  ]
}
